Patent US4957864A, “Novel plasminogen activator and its preparation process” (Mitsui Toatsu Chemicals, Incorporated, priority 1982, dated 1990)
Like-named read-outs stand apart in the source and are kept apart here.

Tests used:
[1] = target: tissue activator obtained from human kidney (Homo sapiens, UniProt P00750); experiment: biochemical; type: biochemical
[2] = target: T1, vascular plasminogen activator (Homo sapiens, UniProt P00750); experiment: biochemical
T1 construct: from tissue; host or cells: blood vessel wall
T1 sequence (P00750 36-562): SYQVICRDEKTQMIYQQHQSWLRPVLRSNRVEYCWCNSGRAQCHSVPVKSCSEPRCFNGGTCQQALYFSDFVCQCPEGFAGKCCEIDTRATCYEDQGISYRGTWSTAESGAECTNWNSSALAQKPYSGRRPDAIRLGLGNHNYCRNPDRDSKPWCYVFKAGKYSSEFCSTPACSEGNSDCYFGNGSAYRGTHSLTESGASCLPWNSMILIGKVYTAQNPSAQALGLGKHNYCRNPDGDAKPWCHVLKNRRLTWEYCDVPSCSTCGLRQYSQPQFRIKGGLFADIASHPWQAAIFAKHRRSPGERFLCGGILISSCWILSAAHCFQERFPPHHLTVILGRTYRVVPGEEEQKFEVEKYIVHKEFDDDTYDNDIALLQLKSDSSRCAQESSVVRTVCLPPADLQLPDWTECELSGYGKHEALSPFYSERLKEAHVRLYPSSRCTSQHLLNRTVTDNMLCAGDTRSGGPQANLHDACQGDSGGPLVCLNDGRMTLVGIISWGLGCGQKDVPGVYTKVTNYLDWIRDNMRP

[3] = hydrolytic activity against chromogenic substrate S-2251; type: biochemical; conditions: activator 100 UKIU/ml; 37° C., 405 nm
Description: (§1) The initial release of 7-amino-4-methylcoumarine (AMC) was measured by a fluorometer at 37° C. in a Shimadzu Fluorospectrophotometer Model RF-520. The fluorometer had been set in such a manner that a radiation of a fluorescent light of 380 nm permitted to emit an excited fluorescent light of 460 nm, and also so adjusted that a 0.1% DMSO solution containing […] gave a relative fluorescent unit of 1.0. The hydrolytic activity of the purified tissue activator was measured using a chromogenic substrate, by adding 200 μl of a tissue activator sample, 200 μl of a 0.1M Tris-HCl solution of pH 8.0 containing 0.1M NaCl and 0.02% Tween 80, and 200 μl of a 3 mM S-2251 solution or a 1 mM S-2288 solution. The initial release of p-nitroaniline was measured by a spectrophotometer at 405 nm and 37° C. in a glass cell. The initial velocity of the hydrolytic activity was expressed in terms of ΔmA/min for the chromogenic substrate and Δ%/min for the fluorescent substrate.
For plasmin, H-D-valyl-L-leucyl-L-lysine-p-nitroanilide dihydrochloride (S-2251);

[4] = hydrolytic activity against fluorescent 4-methylcoumaryl-7-amide substrates; type: biochemical; conditions: 3093-V, 3095-V, 3096-V, 3097-V
Description: The thus-purified tissue activator was tested with various fluorescent substrates by adding 50 μl of the tissue activator sample in a 0.02M Tris-HCl solution of pH 8.0 containing 0.1M NaCl and 0.02% Tween 80 and 2.0 ml of the substrate in the same buffer solution. The following materials were used as the fluorescent substrates:
Boc-L-valyl-L-prolyl-L-arginine-4-methyl-coumaryl-7-amide;
Carbobenzoxy-L-phenylalanyl-L-arginine 4-methylcoumaryl-7-amide;
L-prolyl-L-phenylalanyl-L-arginine-4-methylcoumaryl-7-amide; and
Glutaryl-glycyl-L-arginine-4-methylcoumaryl-7-amide.
as §1, with “The initial velocity of the hydrolytic activity was expressed in terms of ΔmA/min for the chromogenic substrate and Δ%/min for the fluorescent substrate.” left out

[5] = isoelectric point by polyacrylamide gel isoelectric-point electrophoresis; type: physicochemical; conditions: 7.5% polyacrylamide gel, 8M urea, 1% ampholite
Description: The measurement of the isoelectric point of the purified tissue activator was carried out in a 7.5% polyacrylamide gel containing 8M urea and 1% ampholite in accordance with the method proposed by Mertz et al. [Biochem. Biophys. Res. Commun. 49, 84-91 (1972)]. The sample was solubilized in an 8M urea solution containing 2 mM EDTA and 1% ampholite. Its pH was determined by the method proposed by Finlayson et al. [Anal. Biochem. 40, 292-311 (1971)].

[6] = system: antivascular plasminogen activator serum; experiment: double immunodiffusion with antivascular plasminogen activator and anti-urokinase serums; type: binding
Text: Using the antivascular plasminogen activator and anti-urokinase serums, the antigenicities of the both activators were studied in accordance with the double immunodiffusion method. As a result, both urokinase and the vascular plasminogen activator developed individually a single precipitation curve between themselves and their corresponding anti-urokinase or antivascular plasminogen activator serum.
In order to study whether the activators obtained respectively from kidney tissue and the wall of a blood vessel have the same antigenicity as urokinase, the elution profile of proteins and active ingredient of the activator obtained by the antiurokinase IgG-Sepharose affinity chromatographic treatment of the purified activator of Example 1-(6) and the activator of Example 1-(3) was compared with the elution profile of urokinase. […] The protein contained in the effluents was serum albumine incorporated in the commercially available urokinase used in this experiment. […] When the partially-purified sample obtained in Example 1-(3) was poured in the same column, about 15% of the poured activity was adsorbed on the column and eluted with the glycine solution of pH 2.4. […]

[7] = hydrolytic activity against chromogenic substrate S-2288; type: biochemical; conditions: activator 100 UKIU/ml; 37° C., 405 nm
Description: as §1
For tissue plasminogen activator, H-D-isoleucyl-L-prolyl-L-arginine-p-nitroanilide dihydrochloride (S-2288).

[8] = system: insolubilized fibrin monomer; experiment: adsorption onto fibrin-Sepharose column; type: binding, human
[9] = storage and pH stability of activity in buffer solution; type: physicochemical
Description: The same result was obtained even when 1M NH4 SCN or 0.02% Tween 80 and 0.1M NaCl were incorporated in the buffer solution.
The stability of the plasminogen activator of the present invention was investigated in the pH
hours in a buffer solution range of 1-10 at 4° C. for 24 containing 0.5M NaCl and 0.02% Tween 80.

anti-urokinase IgG = experiment: affinity chromatography on anti-urokinase IgG-Sepharose column; type: binding, goat
Text: The employed urokinase sample was identical to that analyzed in accordance with the SDS-polyacrylamide gel electrophoresis.
The gel was washed with a 0.02M Tris-HCl solution of pH 7.4 containing 1.0M NaCl at least 20 times in volume that of the gel.

fibrin [10] = experiment: fibrinolytic activity by the fibrin-agar plate method, compared with urokinase (UKIU); type: biochemical
Description: The fibrinolytic activity of the tissue activator was compared with that of urokinase and was expressed in terms of the international unit (UKIU). […] The activity of the tissue activator was determined by measuring the lytic areas of diluted samples within the range of 120-200 mm^2. […] The enzymatic activity of the tissue activator was standardized by the enzymatic activity of urokinase and the percentage recovery of the tissue activator and its specific activity relative to UKIU/ml were measured after each of several purification stages.
The non-specific fibrin-resolving activity was measured on a fibrin-agar plate free of plasminogen.

fibrin [11] = conditions: M.W. 33,000 urokinase sample; cited from earlier work
[12] = Aprotinin 50 KIU/ml, iodoacetamide 10 mM, soybean trypsin 50 mg/ml, L-arginine 100 mM, diisopropyl fluorophosphate 5 mM, 37° C., 1 hour
[13] = diisopropyl fluorophosphate 5 mM, L-arginine 0.1M, Trasylol 50 KIU/ml, iodoacetamide 10 mM, soybean trypsin inhibitor 50 μg/ml

Sequence of tissue activator obtained from human kidney (P00750 36-562): as above

Molecule: N=C(N)NCCC[C@H](N)C(=O)O [L-arginine]
- inhibition at 100000 µM ([1]; read-out: inhibition of amide-decomposing activity against S-2288): ≤ 26%
- inhibition at 50 µg/mL ([2]; read-out: activity inhibition of the vascular plasminogen activator): 20%

Molecule: NC(=O)CI [iodoacetamide]
- inhibition of amide-decomposing activity against S-2288 [1, 12]: not inhibited
- activity inhibition of the vascular plasminogen activator [2, 13]: no changes

Molecule: Aprotinin [Trasylol]
- inhibition of amide-decomposing activity against S-2288 [1, 12]: not inhibited
- activity inhibition of the vascular plasminogen activator [2, 13]: no changes

Molecule: kidney-originated activator: purified tissue plasminogen activator obtained from human kidney in Example 1-(6); molecular weight about 72,000
- hydrolytic activity against S-2251 [3]: 88 ΔmA/min
- hydrolytic activity to substrates other than S-2251 and S-2288 [4]: did not show hydrolytic activity
- isoelectric point (pI) of the main band [5]: 8.2
- crosslinking of precipitation curves / with antiserum in immunodiffusion [6]: ready crosslinking reaction
- hydrolytic activity against S-2288 [7]: 70 ΔmA/min
- adsorption onto fibrin-Sepharose column [8]: adsorbed completely
- total poured activity recovered by elution with 2M NH4 SCN from fibrin-Sepharose [8]: at least 90%
- pH range in which the activator was stable ([9]; 4° C., 24 hours, buffer containing 0.5M NaCl and 0.02% Tween 80, pH 1-10 tested): 2-10
- activity after storage ([9]; 4° C., buffer solution of pH 7.4, 2 weeks): did not give any activity reduction
- reduction of activity ([9]; pH 1.0, 4° C., 24 hours, 0.5M NaCl and 0.02% Tween 80): 70%
- adsorption / affinity for anti-urokinase IgG-Sepharose (anti-urokinase IgG): passed through the column without adsorption
- Specific activity (fibrin [10]; Table 2, purification stages of tissue plasminogen activator obtained from kidneys): 25,700 UKIU/mg
- specific activity relative to human kidney dried with acetone (fibrin [10]; highly purified form): 30,000-45,000 times

Molecule: urokinase [reference compound]
- specific activity of high-purity human urokinase used as immunogen (fibrin [11]): 202,400 IU/mg
- adsorption onto fibrin-Sepharose column [8]: passed through the column
- adsorption / affinity for anti-urokinase IgG-Sepharose (anti-urokinase IgG): adsorbed strongly
- lytic area on fibrin-agar plate (fibrin [10]; 10 μl of a 1 IU/ml solution): 156 mm^2

Molecule: vascular plasminogen activator: purified plasminogen activator from human blood vessel walls; single-chain glycoprotein, molecular weight about 70,000
- isoelectric point (pI) of the main band [5]: 7.8
- crosslinking of precipitation curves / with antiserum in immunodiffusion [6]: no crosslinking was observed
- adsorption / affinity for anti-urokinase IgG-Sepharose (anti-urokinase IgG): did not show any affinity
- Specific activity (fibrin [10]; Table 1, purification stages of tissue plasminogen activator from blood vessels): 57,400 UKIU/mg
- specific activity of the final plasminogen activator (fibrin [10]; blood vessel derived, after final purification): 45,000-80,000 IU/mg proteins

B1: soybean trypsin inhibitor: soybean trypsin inhibitor used as protease inhibitor (protein, UniProt P01070 25-205, looked up)
Trypsin inhibitor A: DFVLDNEGNPLENGGTYYILSDITAFGGIRAAPTGNERCPLTVVQSRNELDKGIGTIISSPYRIRFIAEGHPLSLKFDSFAVIMLCVGIPTEWSVVEDLPEGPAVKIGENKDAMDGWFRLERVSDDEFNNYKLVFCPQQAEDDKCGDIGISIDHDDGTRRLVVSKNKPLVVQFQKLDKESL
- inhibition of amide-decomposing activity against S-2288 [1]: not inhibited
- activity inhibition of the vascular plasminogen activator [2]: no changes
